Measurements: article PMC6450673, “Targeted degradation of aberrant tau in frontotemporal dementia patient-derived neuronal cell models” (eLife, 2019)

Molecular target: monoamine oxidase (MAO)
Experiment: Monoamine oxidase (MAO-Glo) activity assay
Type: biochemical
Details: four parameter fit
Protocol: The Monoamine oxidase (MAO) activity measurements were performed using a MAO-Glo assay kit (Promega, Madison, WI), in a 384-well plate (Proxiplate 384 Plus, Perkin Elmer, Waltham, MA) with the miniaturization of final assay volume to 20 µL, as per the manufacturer’s instructions. In brief, MAO reactions were terminated after a 60-min enzymatic reaction, by the addition of reconstituted Luciferin Detection Reagent. Following a 20-min incubation with the detection reagent, the luminescence was measured using a multi-label plate reader (Envision, Perkin Elmer). IC50 values were estimated by fitting percentage inhibition vs. compound concentration in a variable slope (four parameter) fit.

O=C(CCc1ccc2c(c1)[nH]c1ccncc12)NCCOCCOCCNc1cccc2c1C(=O)N(C1CCC(=O)NC1=O)C2=O (centres unmarked) [QC-01–175]
IC50 (60-min reaction, read-out: MAO Dose Response IC50): 8.56 µM
MAO Dose Response Hill Slope: 0.301
